The text below walks through data of US8383817B2, “Benztropine compounds and uses thereof” (The United States of America, as represented by the …, priority 2005, dated 2013).

In assay [1] the target is T1, SERT (Rattus norvegicus, UniProt P31652).
T1 construct: Membranes from frozen rat midbrain were homogenized; from tissue; host or cells: rat midbrain membranes
Nature of the assay: [3H]Citalopram Binding Assay, rat midbrain membranes.

Assay [2] addresses T2, DA uptake (Rattus norvegicus, UniProt P23977).
T2 construct: The synaptosomal tissue preparation was incubated in buffer in glass test tubes at 37° C; from tissue
Briefly: Dopamine Uptake Assay, [3H]dopamine in synaptosomal tissue preparation. It is filed as biochemical.

The target in assay [3] is T3, NET (Rattus norvegicus, UniProt Q9WTR4).
T3 construct: rows headed: NET Ki; NET Ki
It is filed as binding. As to conditions: read-out: NET Ki; Table 2.

The target of assay [4] is T4, DAT (Rattus norvegicus, UniProt P23977).
T4 construct: their brains removed to an ice-cooled dish for dissection of the caudate putamen; from tissue; host or cells: rat caudate putamen homogenate
Nature of the assay: biochemical. Type of assay: binding.

Assay [5] deals with T5, muscarinic M1 receptor (Rattus norvegicus, UniProt P08482).
T5 construct: Membranes from frozen rat brains excluding cerebellum were thawed; from tissue; host or cells: rat brain (excluding cerebellum) membranes
T5 sequence (P08482 1-460): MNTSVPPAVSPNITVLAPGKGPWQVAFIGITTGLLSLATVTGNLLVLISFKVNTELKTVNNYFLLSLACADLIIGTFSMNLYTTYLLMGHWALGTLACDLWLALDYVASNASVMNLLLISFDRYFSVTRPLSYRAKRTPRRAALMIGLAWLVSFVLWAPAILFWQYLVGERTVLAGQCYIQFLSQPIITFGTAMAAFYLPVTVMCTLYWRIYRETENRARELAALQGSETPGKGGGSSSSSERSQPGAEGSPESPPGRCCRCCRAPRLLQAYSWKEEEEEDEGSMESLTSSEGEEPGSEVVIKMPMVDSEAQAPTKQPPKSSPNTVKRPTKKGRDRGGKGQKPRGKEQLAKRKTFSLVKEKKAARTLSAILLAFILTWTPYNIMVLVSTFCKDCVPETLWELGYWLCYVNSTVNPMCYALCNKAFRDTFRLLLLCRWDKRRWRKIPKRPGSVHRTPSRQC
Nature of the assay: [3H]Pirenzepine Binding Assay, rat brain membranes.

In assay [6] the target is T1, SERT. As to conditions: read-out: SERT [3H]citalopram Ki ± SEM; cited from earlier work.
For assay [7], the target named is NET (Rattus norvegicus, UniProt Q63380). As to conditions: read-out: NET [3H]nisoxetine Ki ± SEM; comparative data taken from Agoston et al. 1997; cited from earlier work.
The test system of assay [8] is NET. It is filed as binding, rat. As to conditions: ratio of respective Ki values; greater than 1 = DAT selective.
Assay [9] has as its target T5, muscarinic M1 receptor. As to conditions: read-out: M1 [3H]pirenzepine Ki ± SEM; cited from earlier work.
Assay [10] can be described thus: Model For Reducing Effect of Nicotine (nicotine discrimination). Type of assay: in vivo, rat. The conditions noted are these: rats, nicotine only control 50%. An excerpt: Model For Reducing Effect of Nicotine. Food-deprived rats were trained to press one lever for a food pellet after nicotine administration and a second lever after vehicle administration. Pellets of food were delivered intermittently, so that every twentieth response produced food. Using this procedure, the only cue for the rat regarding which lever occasionally pays off with a food pellet, is the subjective effect of the nicotine. When the rats were accurately and reliably identifying the nicotine injections (approximately all of its responses on the lever that occasionally pays off after nicotine or saline), testing began. The rats were pretreated with a compound of Formula III before nicotine injection, and the experiment progressed as described above, except responses on either lever intermittently produced food. A 50% effective nicotine dose was reduced to low levels of effectiveness upon administration of a compound of Formula III.

Assay [11] addresses T4, DAT. As to conditions: comparative data taken from Agoston et al. 1997; read-out: DAT [3H]WIN 35,428 Ki ± SEM; cited from earlier work.
A short description of assay [12]: Model For Determining Increase in Attention. Type of assay: in vivo, rat. The conditions noted are these: rats, five-hole chamber, 40 min session, FIG. 4B. The protocol:
Model For Determining Increase in Attention. Rats were trained during daily sessions in a chamber which contained five holes along one wall. When a light came on behind one of the holes, the rat had 5 sec to respond by putting its nose in the hole. If it did this, a food pellet was dispensed. Lights came on for one second randomly in time. Each tenth “correct” response produced a food pellet. The rat had to continuously monitor (attend to) the lights to perform well. The results were measured and illustrated in FIG. 4A. […] The short diagonal marks on the line indicate the occasions on which food pellets were delivered.
Rats were administered a dose of a compound of Formula III, in which R^1 is methyl and R^2 and R^3 are each fluoro. The same task was applied and the number of correct and incorrect responses was measured. The results are depicted in FIG. 4B.

A short description of assay [13]: Cocaine Discrimination Assay. It is filed as in vivo, rat. The conditions noted are these: rats trained to discriminate IP 10 mg/kg cocaine from saline; 80% or higher = full substitution; FIG. 1.
Setting [14] is: ratio of respective Ki values, greater than 1 = DAT selective.

Structures are written as SMILES. Where two headings read alike, the source gives them in different places.

T1 sequence (P31652 whole entry): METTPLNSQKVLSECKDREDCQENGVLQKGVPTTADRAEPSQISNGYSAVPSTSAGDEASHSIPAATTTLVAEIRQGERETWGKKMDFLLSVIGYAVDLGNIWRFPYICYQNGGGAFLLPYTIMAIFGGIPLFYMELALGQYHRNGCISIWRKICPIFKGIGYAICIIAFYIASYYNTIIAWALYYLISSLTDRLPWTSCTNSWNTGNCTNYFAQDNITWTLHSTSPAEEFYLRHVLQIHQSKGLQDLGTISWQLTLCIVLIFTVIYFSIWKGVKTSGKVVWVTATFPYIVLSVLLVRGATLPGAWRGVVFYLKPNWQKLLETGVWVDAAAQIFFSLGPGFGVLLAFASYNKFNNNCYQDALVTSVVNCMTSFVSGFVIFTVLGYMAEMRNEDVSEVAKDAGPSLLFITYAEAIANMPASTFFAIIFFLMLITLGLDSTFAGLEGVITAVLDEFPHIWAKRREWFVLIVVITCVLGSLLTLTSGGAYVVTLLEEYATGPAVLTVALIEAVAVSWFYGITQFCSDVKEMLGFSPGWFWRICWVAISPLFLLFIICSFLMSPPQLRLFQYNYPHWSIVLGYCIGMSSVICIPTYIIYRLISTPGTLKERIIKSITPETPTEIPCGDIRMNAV
T4 sequence (P23977 whole entry): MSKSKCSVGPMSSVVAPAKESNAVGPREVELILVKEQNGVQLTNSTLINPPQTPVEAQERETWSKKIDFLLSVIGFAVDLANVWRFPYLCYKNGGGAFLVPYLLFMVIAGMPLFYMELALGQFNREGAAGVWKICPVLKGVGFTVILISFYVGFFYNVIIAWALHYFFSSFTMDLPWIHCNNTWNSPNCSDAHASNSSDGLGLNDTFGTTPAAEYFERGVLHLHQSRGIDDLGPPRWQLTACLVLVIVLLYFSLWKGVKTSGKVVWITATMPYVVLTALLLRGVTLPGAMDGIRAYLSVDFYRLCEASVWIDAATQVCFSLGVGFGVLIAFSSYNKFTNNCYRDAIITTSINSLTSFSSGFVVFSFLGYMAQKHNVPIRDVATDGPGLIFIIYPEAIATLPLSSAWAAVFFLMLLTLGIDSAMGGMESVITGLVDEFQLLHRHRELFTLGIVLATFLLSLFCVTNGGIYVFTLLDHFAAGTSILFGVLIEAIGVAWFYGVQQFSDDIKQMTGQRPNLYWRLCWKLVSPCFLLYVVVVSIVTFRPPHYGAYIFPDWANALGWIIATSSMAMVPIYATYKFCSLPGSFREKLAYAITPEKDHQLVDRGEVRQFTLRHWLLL
T2 sequence (P23977 whole entry): as above
NET (Rattus norvegicus, UniProt Q63380), sequence (Q63380 1-617): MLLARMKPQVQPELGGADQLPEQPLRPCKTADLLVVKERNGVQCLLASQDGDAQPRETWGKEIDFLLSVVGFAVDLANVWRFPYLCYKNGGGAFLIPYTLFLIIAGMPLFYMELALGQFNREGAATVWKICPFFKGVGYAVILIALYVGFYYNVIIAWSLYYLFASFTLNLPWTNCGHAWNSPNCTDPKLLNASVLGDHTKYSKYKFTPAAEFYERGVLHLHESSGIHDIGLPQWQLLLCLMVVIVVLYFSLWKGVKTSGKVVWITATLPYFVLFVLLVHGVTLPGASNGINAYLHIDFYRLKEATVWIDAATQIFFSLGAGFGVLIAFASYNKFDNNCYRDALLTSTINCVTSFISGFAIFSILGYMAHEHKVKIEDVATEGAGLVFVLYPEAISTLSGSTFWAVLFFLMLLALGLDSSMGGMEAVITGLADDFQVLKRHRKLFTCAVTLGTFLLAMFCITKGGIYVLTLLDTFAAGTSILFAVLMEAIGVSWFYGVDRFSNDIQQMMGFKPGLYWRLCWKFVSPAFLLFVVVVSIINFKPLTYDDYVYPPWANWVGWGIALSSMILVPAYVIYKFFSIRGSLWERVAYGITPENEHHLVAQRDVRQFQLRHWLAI

By Ki is commonly meant the dissociation constant of the complex between target and ligand, obtained from inhibition or displacement. For orientation: IC50 means the concentration at which inhibition is half-maximal. As for `CCOC(=O)[C@@H]1[C@@H](OC(c2ccc(Cl)cc2)c2ccc(Cl)cc2)C[C@H]2CC[C@@H]1N2C` [Compound S-15, S-(+)-2β-Carboethoxy-3α-[bis(4-chlorophenyl)methoxy]tropane], the Ki was 1560 ± 91 nM in [1], 3350 ± 154 nM in assay [3], 14.6 ± 0.39 nM in assay [4] and 3060 ± 150 nM in assay [5]. This molecule gave an IC50 in [2] of 1.52 ± 0.2 nM.

`CCCCN1[C@@H]2CC[C@H]1C[C@@H](OC(c1ccc(F)cc1)c1ccc(F)cc1)C2` [Compound 12]: the “Binding selectivity DAT/SERT” value in assay [1] (setting [14]) was determined as 139. In addition, the Ki in assay [6] was 1350 ± 151 nM; in [7], 1490 ± 190 nM; in assay [9] it was 399 ± 26.8 nM; in assay [11], 9.7 ± 0.91 nM. The “Binding selectivity DAT/NET” value in assay [8] was 153. Moreover, the “Binding selectivity DAT/M1” value in [5] (setting [14]) is recorded as 41. In addition, the “Effect (of a 50% effective nicotine dose after pretreatment)” value in assay [10] (dose 3.0 mg/kg) is 2.67%.

`CN1[C@@H]2CC[C@@H]1CC(OC(c1ccc(F)cc1)c1ccc(F)cc1)C2` (stereo partly drawn) [AHN 1-055]: the “Number of correct responses (attention to brief light stimuli)” value in assay [12] was “far greater than before treatment”. Also, the “Substitution for cocaine (cocaine-appropriate responding)” value in assay [13] is “did not fully substitute for cocaine”. The “Effect (of a 50% effective nicotine dose after pretreatment)” value in [10] (dose 1.0 mg/kg) is reported as 7.65%.

Turning to `COC(=O)[C@@H]1[C@@H](OC(c2ccc(Cl)cc2)c2ccc(Cl)cc2)C[C@H]2CC[C@@H]1N2C` [Compound S-14], the inhibitory constant (Ki) in [1] was 528 ± 39 nM; in assay [3] it was 2150 ± 325 nM; in [4] it was 12.6 ± 0.4 nM; in assay [5], 382 ± 37 nM. Half-maximal inhibition in assay [2] (IC50) required 2.46 ± 0.2 nM.
